Tested on: 885724-159-R-J1-PDC complex spheroid viability
Assay: Anticancer human tumor 885724-159-R-J1-PDC patient-derived pancreatic adenocarcinoma cell line growth inhibition [GQUAD]
Settings: for IC50: curve of first compound; for viability, T/C: stronger effect = lower value
Summary of the method: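 Viability of tumor cells grown as complex spheroids with endothelial and stromal cells, exposed to drug combinations. Top concentration at or near clinical Cmax (else 10 microM), diluted in half-log increments.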

[1] = second compound 0.0316 µM, first compound 0.0316 µM
[2] = second compound 0.0316 µM, first compound 0.1 µM
[3] = second compound 0.0316 µM, first compound 0.316 µM
[4] = second compound 0.0316 µM, first compound 1 µM
[5] = second compound 0.0316 µM, first compound 3.16 µM
[6] = second compound 0.0316 µM, first compound 10 µM
[7] = second compound 0.1 µM, first compound 0.0316 µM
[8] = second compound 0.1 µM, first compound 0.1 µM
[9] = second compound 0.1 µM, first compound 0.316 µM
[10] = second compound 0.1 µM, first compound 1 µM
[11] = second compound 0.1 µM, first compound 3.16 µM
[12] = second compound 0.1 µM, first compound 10 µM
[13] = second compound 0.316 µM, first compound 0.0316 µM
[14] = second compound 0.316 µM, first compound 0.1 µM
[15] = second compound 0.316 µM, first compound 0.316 µM
[16] = second compound 0.316 µM, first compound 1 µM
[17] = second compound 0.316 µM, first compound 3.16 µM
[18] = second compound 0.316 µM, first compound 10 µM
[19] = second compound 1 µM, first compound 0.0316 µM
[20] = second compound 1 µM, first compound 0.1 µM
[21] = second compound 1 µM, first compound 0.316 µM
[22] = second compound 1 µM, first compound 1 µM
[23] = second compound 1 µM, first compound 3.16 µM
[24] = second compound 1 µM, first compound 10 µM
[25] = second compound 3.16 µM, first compound 0.0316 µM
[26] = second compound 3.16 µM, first compound 0.1 µM
[27] = second compound 3.16 µM, first compound 0.316 µM
[28] = second compound 3.16 µM, first compound 1 µM
[29] = second compound 3.16 µM, first compound 3.16 µM
[30] = second compound 3.16 µM, first compound 10 µM
[31] = second compound 10 µM, first compound 0.0316 µM
[32] = second compound 10 µM, first compound 0.1 µM
[33] = second compound 10 µM, first compound 0.316 µM
[34] = second compound 10 µM, first compound 1 µM
[35] = second compound 10 µM, first compound 3.16 µM
[36] = second compound 10 µM, first compound 10 µM
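Further: spheroids exposed to agents for seven days before readout.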
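Wherever viability, T/C is given: percent of vehicle control viability where 100% = DMSO wells.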

## CC(C)n1c(=O)n(C)c2cnc3cc(F)c(-c4ccc(OCCCN5CCCCC5)nc4)cc3c21 + Cc1[nH]c2ccc(F)cc2c1-c1nc2c3cccnc3c3ncccc3c2[nH]1
Second compound 0.0316 µM
  IC50: > 10 µM
Second compound 0.1 µM
  IC50: > 10 µM
Second compound 0.316 µM
  IC50: > 10 µM
Second compound 1 µM
  IC50: > 10 µM
Second compound 3.16 µM
  IC50: 0.133 µM
Second compound 10 µM
  IC50: > 10 µM
[1]
  viability, T/C: 107%
[2]
  viability, T/C: 95.2%
[3]
  viability, T/C: 98.2%
[4]
  viability, T/C: 92.9%
[5]
  viability, T/C: 84.6%
[6]
  viability, T/C: 83.2%
[7]
  viability, T/C: 100%
[8]
  viability, T/C: 99.2%
[9]
  viability, T/C: 100%
[10]
  viability, T/C: 91.3%
[11]
  viability, T/C: 94.5%
[12]
  viability, T/C: 78.9%
[13]
  viability, T/C: 93.4%
[14]
  viability, T/C: 102%
[15]
  viability, T/C: 92.5%
[16]
  viability, T/C: 79.8%
[17]
  viability, T/C: 81.6%
[18]
  viability, T/C: 74.2%
[19]
  viability, T/C: 74.3%
[20]
  viability, T/C: 69.2%
[21]
  viability, T/C: 75%
[22]
  viability, T/C: 70%
[23]
  viability, T/C: 68.3%
[24]
  viability, T/C: 59.5%
[25]
  viability, T/C: 54.7%
[26]
  viability, T/C: 43.4%
[27]
  viability, T/C: 53.8%
[28]
  viability, T/C: 42.9%
[29]
  viability, T/C: 38.5%
[30]
  viability, T/C: 25.3%
[31]
  viability, T/C: 69.9%
[32]
  viability, T/C: 71.6%
[33]
  viability, T/C: 79.8%
[34]
  viability, T/C: 76.1%
[35]
  viability, T/C: 72.4%
[36]
  viability, T/C: 63.2%

## CC1COCCN1c1cc(-c2ccnn2C)c2ccnc(-c3ccn[nH]3)c2n1 (stereo not drawn) + Cc1[nH]c2ccc(F)cc2c1-c1nc2c3cccnc3c3ncccc3c2[nH]1
Second compound 0.0316 µM
  IC50: > 10 µM
Second compound 0.1 µM
  IC50: > 10 µM
Second compound 0.316 µM
  IC50: 8.46 µM
Second compound 1 µM
  IC50: 2.85 µM
Second compound 3.16 µM
  IC50: 0.0524 µM
Second compound 10 µM
  IC50: 4.98 µM
[1]
  viability, T/C: 104%
[2]
  viability, T/C: 87.3%
[3]
  viability, T/C: 87.2%
[4]
  viability, T/C: 76.9%
[5]
  viability, T/C: 53.3%
[6]
  viability, T/C: 53.8%
[7]
  viability, T/C: 99.7%
[8]
  viability, T/C: 104%
[9]
  viability, T/C: 89.8%
[10]
  viability, T/C: 73.5%
[11]
  viability, T/C: 62.5%
[12]
  viability, T/C: 51.8%
[13]
  viability, T/C: 98.7%
[14]
  viability, T/C: 84.7%
[15]
  viability, T/C: 68.7%
[16]
  viability, T/C: 61.1%
[17]
  viability, T/C: 56.6%
[18]
  viability, T/C: 48%
[19]
  viability, T/C: 80.4%
[20]
  viability, T/C: 68.9%
[21]
  viability, T/C: 63.8%
[22]
  viability, T/C: 54.5%
[23]
  viability, T/C: 51%
[24]
  viability, T/C: 43.5%
[25]
  viability, T/C: 54.8%
[26]
  viability, T/C: 39.6%
[27]
  viability, T/C: 47.9%
[28]
  viability, T/C: 28.2%
[29]
  viability, T/C: 24.8%
[30]
  viability, T/C: 30.6%
[31]
  viability, T/C: 66.3%
[32]
  viability, T/C: 66%
[33]
  viability, T/C: 62.9%
[34]
  viability, T/C: 52.9%
[35]
  viability, T/C: 51.8%
[36]
  viability, T/C: 47.9%

## CC1COCCN1c1cc(C2(O)CC3CCC(C2)O3)c2cnn(-c3ccn[nH]3)c2n1 (stereo not drawn) + Cc1[nH]c2ccc(F)cc2c1-c1nc2c3cccnc3c3ncccc3c2[nH]1
Second compound 0.0316 µM
  IC50: 1.89 µM
Second compound 0.1 µM
  IC50: 1.2 µM
Second compound 0.316 µM
  IC50: 0.865 µM
Second compound 1 µM
  IC50: 0.432 µM
Second compound 3.16 µM
  IC50: < 0.0316 µM
Second compound 10 µM
  IC50: 0.512 µM
[1]
  viability, T/C: 97.7%
[2]
  viability, T/C: 77.5%
[3]
  viability, T/C: 68.3%
[4]
  viability, T/C: 55.2%
[5]
  viability, T/C: 46%
[6]
  viability, T/C: 37.8%
[7]
  viability, T/C: 96.6%
[8]
  viability, T/C: 88%
[9]
  viability, T/C: 74.1%
[10]
  viability, T/C: 50.1%
[11]
  viability, T/C: 42.7%
[12]
  viability, T/C: 37.7%
[13]
  viability, T/C: 91%
[14]
  viability, T/C: 79%
[15]
  viability, T/C: 62.4%
[16]
  viability, T/C: 47.3%
[17]
  viability, T/C: 41.6%
[18]
  viability, T/C: 35.5%
[19]
  viability, T/C: 79.5%
[20]
  viability, T/C: 66%
[21]
  viability, T/C: 54.2%
[22]
  viability, T/C: 38.1%
[23]
  viability, T/C: 37.4%
[24]
  viability, T/C: 25.4%
[25]
  viability, T/C: 41.2%
[26]
  viability, T/C: 29.9%
[27]
  viability, T/C: 41.1%
[28]
  viability, T/C: 22.6%
[29]
  viability, T/C: 20.1%
[30]
  viability, T/C: 8.51%
[31]
  viability, T/C: 69.6%
[32]
  viability, T/C: 69%
[33]
  viability, T/C: 51%
[34]
  viability, T/C: 44.4%
[35]
  viability, T/C: 33.1%
[36]
  viability, T/C: 24.1%

## CC1COCCN1c1cc(C2(S(C)(=N)=O)CC2)nc(-c2ccnc3[nH]ccc23)n1 (stereo not drawn) + Cc1[nH]c2ccc(F)cc2c1-c1nc2c3cccnc3c3ncccc3c2[nH]1
Second compound 0.0316 µM
  IC50: > 10 µM
Second compound 0.1 µM
  IC50: > 10 µM
Second compound 0.316 µM
  IC50: > 10 µM
Second compound 1 µM
  IC50: > 10 µM
Second compound 3.16 µM
  IC50: 0.137 µM
Second compound 10 µM
  IC50: > 10 µM
[1]
  viability, T/C: 105%
[2]
  viability, T/C: 113%
[3]
  viability, T/C: 103%
[4]
  viability, T/C: 90.3%
[5]
  viability, T/C: 95.7%
[6]
  viability, T/C: 76.2%
[7]
  viability, T/C: 110%
[8]
  viability, T/C: 103%
[9]
  viability, T/C: 95.7%
[10]
  viability, T/C: 103%
[11]
  viability, T/C: 77.2%
[12]
  viability, T/C: 68.1%
[13]
  viability, T/C: 90.3%
[14]
  viability, T/C: 99.9%
[15]
  viability, T/C: 93.6%
[16]
  viability, T/C: 93.6%
[17]
  viability, T/C: 92.4%
[18]
  viability, T/C: 67.6%
[19]
  viability, T/C: 81.8%
[20]
  viability, T/C: 72.5%
[21]
  viability, T/C: 78.8%
[22]
  viability, T/C: 68.7%
[23]
  viability, T/C: 66.6%
[24]
  viability, T/C: 64.1%
[25]
  viability, T/C: 62.5%
[26]
  viability, T/C: 43.8%
[27]
  viability, T/C: 56%
[28]
  viability, T/C: 36.3%
[29]
  viability, T/C: 48.3%
[30]
  viability, T/C: 36%
[31]
  viability, T/C: 68.1%
[32]
  viability, T/C: 77.2%
[33]
  viability, T/C: 67.5%
[34]
  viability, T/C: 74.3%
[35]
  viability, T/C: 61.1%
[36]
  viability, T/C: 54.7%

Source: PubChem BioAssay AID2060502 (Molecular Pharmacology Branch, DTP, NCI, 2025)
